In patent publication US4414334A, “Oxygen scavenging with enzymes” (Phillips Petroleum Company, priority 1981, dated 1983):

Legend:
[1] = target: alcohol oxidase (alcohol: oxygen oxidoreductase) isolated from Pichia pastoris (Komagataella phaffii, UniProt F2QY27)
[2] = substrate: CO; assay: purified protein, by the assay type; conditions: other: Pichia pastoris alcohol oxidase; substrate methanol

**Q.** With `CO` [methanol] as the molecule, how does the Km ([1]; read-out: apparent Michaelis constant, Km, for methanol, substrate methanol) read?
**A.** ~4 mM

**Q.** For `C=O` [HCHO, formaldehyde], which “Inhibitors (inhibitory concentration of HCHO)” value ([1]; Table I lists HCHO as inhibitor at >30 mM) is on record?
**A.** > 30 mM

B1: alcohol oxidase (alcohol: oxygen oxidoreductase) isolated from Pichia pastoris (Komagataella phaffii CBS 7435) (protein)
chain: AIPEEFDILVLGGGSSGSCIAGRLANLDHSLKVGLIEAGENNLNNPWVYLPGIYPRNMKLDSKTASFYTSNPSPHLNGRRAIVPCANVLGGGSSINFMMYTRGSASDYDDFQAEGWKTKDLLPLMKKTETYQRACNNPDIHGFEGPIKVSFGNYTYPVCQDFLRASESQGIPYVDDLEDLVTAHGAEHWLKWINRDTGRRSDSAHAFVHSTMRNHDNLYLICNTKVDKIIVEDGRAAAVRTVPSKPLNPKKPSHKIYRARKQIVLSCGTISSPLVLQRSGFGDPIKLRAAGVKPLVNLPGVGRNFQDHYCFFSPYRIKPQYESFDDFVRGDAEIQKRVFDQWYANGTGPLATNGIEAGVKIRPTPEELSQMDESFQEGYREYFEDKPDKPVMHYSIIAGFFGDHTKIPPGKYMTMFHFLEYPFSRGSIHITSPDPYAAPDFDPGFMNDERDMAPMVWAYKKSRETARRMDHFAGEVTSHHPLFPYSSEARALEMDLETSNAYGGPLNLSAGLAHGSWTQPLKKPTAKNEGHVTSNQVELHPDIEYDEEDDKAIENYIREHTETTWHCLGTCSIGPREGSKIVKWGGVLDHRSNVYGVKGLKVGDLSVCPDNVGCNTYTTALLIGEKTATLVGEDLGYSGEALDMTVPQFKLGTYEKTGLARF
**Q.** How did the Km [2] turn out when B1 was run?
**A.** 4 mM
